Test results published in article PMC4558116, “Inhibition of COP9-signalosome (CSN) deneddylating activity and tumor growth of diffuse large B-cell lymphomas by doxycycline” (Oncotarget, 2015).

Target: T1, CSN5 (COP-9 signalosome deneddylase subunit) (Homo sapiens, UniProt Q92905)
T1 construct: gene COPS5; purified CSN complex; with COP9 signalosome (CSN) complex; substrate Nedd8-conjugated SCF^Skp2 (Cullin-1)
Assay: fluorescence polarization deneddylation assay with purified CSN and Oregon Green-Nedd8-SCF^Skp2
Type: biochemical

T1 sequence (Q92905 2-334): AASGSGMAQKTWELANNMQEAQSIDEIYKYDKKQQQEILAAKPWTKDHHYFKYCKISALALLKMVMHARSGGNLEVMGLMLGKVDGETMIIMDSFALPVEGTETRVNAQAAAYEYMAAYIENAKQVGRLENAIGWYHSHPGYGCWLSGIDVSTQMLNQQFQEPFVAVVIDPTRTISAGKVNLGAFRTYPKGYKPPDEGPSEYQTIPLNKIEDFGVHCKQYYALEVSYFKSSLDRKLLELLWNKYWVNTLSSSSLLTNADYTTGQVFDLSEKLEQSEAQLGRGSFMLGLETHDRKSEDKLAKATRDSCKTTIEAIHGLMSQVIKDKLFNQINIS

IC50: ~110 µM
SMILES: C[C@H]1c2cccc(O)c2C(=O)C2=C(O)[C@]3(O)C(=O)C(C(N)=O)=C(O)[C@@H](N(C)C)[C@@H]3[C@@H](O)[C@@H]21 [doxycycline]
